Reference: the NIST ThermoML archive (doi:10.1021/je060271a)

Conditions: 283.15 K, Liquid, Vibrating tube method

CCCCC(=O)OCC(COC(=O)CCCC)(COC(=O)CCCC)COC(=O)CCCC [pentaerythritol tetrapentanoate]
Conditions	mass density [kg/m3]
21592 kPa	1039.3
21628 kPa	1039.2
21658 kPa	1039.2
21689 kPa	1039.3
21727 kPa	1039.4
21760 kPa	1039.4
21791 kPa	1039.4
21822 kPa	1039.5
21860 kPa	1039.5
21891 kPa	1039.5
21922 kPa	1039.5
21954 kPa	1039.5
21992 kPa	1039.5
22024 kPa	1039.5
22061 kPa	1039.6
22093 kPa	1039.7
22125 kPa	1039.5
22164 kPa	1039.5
22192 kPa	1039.6
22231 kPa	1039.6
22263 kPa	1039.6
22302 kPa	1039.7
22335 kPa	1039.7
22367 kPa	1039.8
22406 kPa	1039.7
22439 kPa	1039.8
22472 kPa	1039.7
22512 kPa	1039.8
22545 kPa	1039.8
22579 kPa	1039.8
22619 kPa	1040
22654 kPa	1039.9
22687 kPa	1039.9
22721 kPa	1039.9
22762 kPa	1039.8
22796 kPa	1040
22830 kPa	1039.9
22871 kPa	1040
22905 kPa	1040
22947 kPa	1039.9
22982 kPa	1040.1
23016 kPa	1039.9
23059 kPa	1040
23094 kPa	1040.1
23129 kPa	1040.1
23164 kPa	1040.2
23208 kPa	1040.1
23243 kPa	1040.3
23285 kPa	1040.3
23321 kPa	1040.3
23357 kPa	1040.2
23394 kPa	1040.2
23437 kPa	1040.3
23473 kPa	1040.2
23516 kPa	1040.4
23553 kPa	1040.3
23590 kPa	1040.4
23635 kPa	1040.3
23672 kPa	1040.4
23709 kPa	1040.5
23746 kPa	1040.5
23790 kPa	1040.5
23827 kPa	1040.5
23872 kPa	1040.5
23909 kPa	1040.5
23947 kPa	1040.5
24000 kPa	1040.6
24048 kPa	1040.5
24099 kPa	1040.6
24162 kPa	1040.7
24208 kPa	1040.8
24238 kPa	1040.7
24266 kPa	1040.7
24299 kPa	1040.8
24327 kPa	1040.8
24360 kPa	1040.9
24388 kPa	1040.7
24416 kPa	1040.9
24444 kPa	1040.9
24478 kPa	1040.9
24506 kPa	1040.9
24535 kPa	1041
24569 kPa	1040.9
24598 kPa	1041
24626 kPa	1040.9
24660 kPa	1040.9
24689 kPa	1040.9
24718 kPa	1041
24746 kPa	1041
24781 kPa	1041.2
24810 kPa	1041
24845 kPa	1041.1
24874 kPa	1041.2
24903 kPa	1041.1
24934 kPa	1041.1
24964 kPa	1041.1
24999 kPa	1041
25028 kPa	1041.2
25058 kPa	1041.2
25088 kPa	1041.2
25124 kPa	1041.1
25154 kPa	1041.2
25183 kPa	1041.2
25219 kPa	1041.3
25249 kPa	1041.3
25279 kPa	1041.3
25347 kPa	1041.3
25380 kPa	1041.4
25410 kPa	1041.3
25441 kPa	1041.5
25477 kPa	1041.3
25508 kPa	1041.3
25544 kPa	1041.4
25575 kPa	1041.5
25606 kPa	1041.5
25642 kPa	1041.6
25673 kPa	1041.4
25705 kPa	1041.4
25742 kPa	1041.3
25775 kPa	1041.5
25806 kPa	1041.6
25837 kPa	1041.5
25875 kPa	1041.6
25907 kPa	1041.6
25939 kPa	1041.7
25977 kPa	1041.6
26009 kPa	1041.6
26041 kPa	1041.6
26079 kPa	1041.7
26111 kPa	1041.7
26143 kPa	1041.7
26176 kPa	1041.8
26216 kPa	1041.7
26249 kPa	1041.8
26282 kPa	1041.8
26315 kPa	1041.8
26354 kPa	1041.8
26388 kPa	1041.9
26421 kPa	1041.8
26461 kPa	1041.9
26494 kPa	1042
26528 kPa	1041.8
26567 kPa	1042
26601 kPa	1041.9
26635 kPa	1041.9
26669 kPa	1042
26710 kPa	1042
26744 kPa	1042.1
26778 kPa	1042.1
26818 kPa	1042
26853 kPa	1042.1
26893 kPa	1042.1
26928 kPa	1042.1
26963 kPa	1042.2
26997 kPa	1042.1
27039 kPa	1042.2
27074 kPa	1042.2
27110 kPa	1042.3
27152 kPa	1042.2
27187 kPa	1042.3
